Experimental data published in patent US6960574B2, “Antagonists of RF-amide neuropeptides” (University of Florida, priority 2002, dated 2005).
Like-named read-outs stand apart in the source and are kept apart here. Each block holds one compound with its values, some of them ahead of it. Ends that are not written are not given here. Peptide text beside a SMILES is read from it. * marks the point of attachment. Dansyl = CN(C)c1cccc2c(S(=O)(=O)*)cccc12; Desaminotyrosyl = O=C(CCc1ccc(O)cc1)*

Tests used:
[1] = test system: naloxone-precipitated withdrawal symptoms; settings: cited from earlier work
[2] = target: receptor labeled by the radioiodinated analogue of 1 (4, [125I]-YLFQPQRF-NH2); neuropeptide FF receptor; settings: CNS membrane preparation, literature value; cited from earlier work
[3] = Immobilized artificial membrane (IAM) chromatography; format: physicochemical
Source text: The purity of this new neuropeptide FF antagonist was confirmed by combustion analysis [Table 1] (data were within ±0.4% of calculated values) and ESI mass spectrometry (no impurities exceeding 1% based on relative ion abundance). […] The compounds were also characterized by immobilized artificial membrane (IAM) chromatography, a method that furnishes capacity factors whose logarithm generally correlates with in vivo absorption [Pidgeon, et al., J. Med. Chem. 1995, 38, 590-594] including penetration across the BBB [Reichel, et al., Pharm. Res. 1998, 15, 1270-1274].
The combinatorial libraries herein were prepared on a SynPep (Dublin, Calif.) multiple peptide synthesizer. A Synthor 2000, Peptide International (Louisville, Ky.) instrument was used for the preparation of the individual compounds by Fmoc chemistry. Immobilized artificial membrane (IAM) chromatography was performed on a system that included a model SP 8810 precision isocratic pump, an SP 8880 autosampler with a 20-μL injection loop, an SP 8450 variable wavelength UV/VIS detector operated at 254 nm, and SP 4290 computing integrator (all from ThermoSeparation|SpectraPhysics, Fremont, Calif.). RP-HPLC purification was done on a system composed of an SP 200 binary gradient pump (ThermoSeparation), a Rheodyne (Cotati, Calif.) model 7125 injector valve equipped with a 5-mL sample loop, and an SP 100 UV/VIS detector (ThermoSeparation) operated at 210 nm. Electrospray ionization (ESI) and tandem mass spectra were obtained on a quadrupole ion trap instrument (LCQ, Finnigan MAT, San Jose, Calif.). NMR spectra were recorded on Bruker AVANCE instruments (Bremen, Germany). Resonance frequencies were 500 and 600 MHz for ^1H and 127 MHz for ^13C. The samples were dissolved in H2O/D2O (8/2, v/v).

[4] = target: receptor labeled by the radioiodinated analogue of 1 (4, [125I]-YLFQPQRF-NH2); neuropeptide FF receptor; test: Competitive radioligand binding against 4 ([125I]Y8F-amide); settings: for Ki: competition against 4; for Relative Binding Index (RBI): mixture-based positional scanning, difference from averaged radioligand displacement of whole library (0), about 80 a.u. = 10-fold change in Ki
[5] = test system: abstinence-like signs induced by neuropeptide FF (1); settings: cited from earlier work
[6] = after systemic administration; cited from earlier work
[7] = test system: opiate abstinence syndrome; settings: 2 μg i.c.v.; cited from earlier work

Compound: CN(C)c1cccc2c(S(=O)(=O)N3CCCC3C(=O)NC(CCC(N)=O)C(=O)NC(CCCNC(=N)N)C(N)=O)cccc12 (stereo not drawn) [Compound 3, Dansyl-Pro-Gln-Arg-NH2, reference compound] (Dansyl-Pro-Gln-Arg-NH2; configuration not given here)
- naloxone-precipitated withdrawal symptoms in morphine-dependent rats ([1]; administered subcutaneously): blunted
- inhibition constant (Ki) [2]: micromolar range
- kIAM′ (IAM capacity factor) [3]: 5.9
- log kIAM′ [3]: 0.77
- Ki [4]: 13600 nM
- Relative Binding Index (RBI) [4]: −34 a.u.
- QMAS induced by 1 ([5]; rat, in vivo): dose-dependently antagonized

- kIAM′ (IAM capacity factor) [3]: 8.0
- log kIAM′ [3]: 0.90
- Ki [4]: 1400 ± 500 nM
- Relative Binding Index (RBI) [4]: 46 a.u.
- increase in binding affinity compared to 3 ([4]; ratio of Ki values): approximately 10 fold
Compound: CN(C)c1cccc2c(S(=O)(=O)NCC(=O)NC(CO)C(=O)NC(CCCNC(=N)N)C(N)=O)cccc12 (stereo not drawn) [Compound 5, dansyl-Gly-Ser-Arg-NH2] (Dansyl-Gly-Ser-Arg-NH2; configuration not given here)

- Relative Binding Index (RBI) [4]: −1 a.u.
Compound: CC(C)C[C@H](NC(=O)[C@H](Cc1ccc(O)cc1)NS(=O)(=O)c1cccc2c(N(C)C)cccc12)C(=O)N[C@@H](CCCNC(=N)N)C(N)=O [Dansyl-YLR-amide] (Dansyl-Tyr-Leu-Arg-NH2)

- Relative Binding Index (RBI) [4]: 7 a.u.
Compound: CSCC[C@H](NC(=O)[C@H](Cc1ccc(O)cc1)NS(=O)(=O)c1cccc2c(N(C)C)cccc12)C(=O)N[C@@H](CCCNC(=N)N)C(N)=O [Dansyl-YMR-amide] (Dansyl-Tyr-Met-Arg-NH2)

- Relative Binding Index (RBI) [4]: 8 a.u.
Compound: CN(C)c1cccc2c(S(=O)(=O)N[C@@H](Cc3ccc(O)cc3)C(=O)N[C@@H](CC(N)=O)C(=O)N[C@@H](CCCNC(=N)N)C(N)=O)cccc12 [Dansyl-YNR-amide] (Dansyl-Tyr-Asn-Arg-NH2)

- Relative Binding Index (RBI) [4]: 10 a.u.
Compound: CN(C)c1cccc2c(S(=O)(=O)N[C@@H](Cc3ccc(O)cc3)C(=O)N3CCC[C@H]3C(=O)N[C@@H](CCCNC(=N)N)C(N)=O)cccc12 [Dansyl-YPR-amide] (Dansyl-Tyr-Pro-Arg-NH2)

- Relative Binding Index (RBI) [4]: 21 a.u.
Compound: CN(C)c1cccc2c(S(=O)(=O)N[C@@H](Cc3ccc(O)cc3)C(=O)N[C@@H](CCC(N)=O)C(=O)N[C@@H](CCCNC(=N)N)C(N)=O)cccc12 [Dansyl-YQR-amide] (Dansyl-Tyr-Gln-Arg-NH2)

- Relative Binding Index (RBI) [4]: 6 a.u.
Compound: CN(C)c1cccc2c(S(=O)(=O)N[C@@H](Cc3ccc(O)cc3)C(=O)N[C@@H](CCCNC(=N)N)C(=O)N[C@@H](CCCNC(=N)N)C(N)=O)cccc12 [Dansyl-YRR-amide] (Dansyl-Tyr-Arg-Arg-NH2)

- Relative Binding Index (RBI) [4]: 28 a.u.
Compound: CN(C)c1cccc2c(S(=O)(=O)N[C@@H](Cc3ccc(O)cc3)C(=O)N[C@@H](CO)C(=O)N[C@@H](CCCNC(=N)N)C(N)=O)cccc12 [Dansyl-YSR-amide] (Dansyl-Tyr-Ser-Arg-NH2)

- Relative Binding Index (RBI) [4]: 13 a.u.
Compound: C[C@@H](O)[C@H](NC(=O)[C@H](Cc1ccc(O)cc1)NS(=O)(=O)c1cccc2c(N(C)C)cccc12)C(=O)N[C@@H](CCCNC(=N)N)C(N)=O [Dansyl-YTR-amide] (Dansyl-Tyr-Thr-Arg-NH2)

- Relative Binding Index (RBI) [4]: 2 a.u.
Compound: CC(C)[C@H](NC(=O)[C@H](Cc1ccc(O)cc1)NS(=O)(=O)c1cccc2c(N(C)C)cccc12)C(=O)N[C@@H](CCCNC(=N)N)C(N)=O [Dansyl-YVR-amide] (Dansyl-Tyr-Val-Arg-NH2)

- Relative Binding Index (RBI) [4]: 16 a.u.
Compound: CN(C)c1cccc2c(S(=O)(=O)N[C@@H](Cc3ccc(O)cc3)C(=O)N[C@@H](Cc3c[nH]c4ccccc34)C(=O)N[C@@H](CCCNC(=N)N)C(N)=O)cccc12 [Dansyl-YWR-amide] (Dansyl-Tyr-Trp-Arg-NH2)

- Relative Binding Index (RBI) [4]: 6 a.u.
Compound: CN(C)c1cccc2c(S(=O)(=O)N[C@@H](Cc3ccc(O)cc3)C(=O)N[C@@H](Cc3ccc(O)cc3)C(=O)N[C@@H](CCCNC(=N)N)C(N)=O)cccc12 [Dansyl-YYR-amide] (Dansyl-Tyr-Tyr-Arg-NH2)

Compound: Desaminotyrosyl-Phe-Leu-Phe-Gln-Pro-Gln-Arg-NH2 (Desaminotyrosyl-FLFQPQR-NH2; SMILES CC(C)C[C@H](NC(=O)[C@H](Cc1ccccc1)NC(=O)CCc1ccc(O)cc1)C(=O)N[C@@H](Cc1ccccc1)C(=O)N[C@@H](CCC(N)=O)C(=O)N1CCC[C@H]1C(=O)N[C@@H](CCC(N)=O)C(=O)N[C@@H](CCCNC(=N)N)C(N)=O) [Compound 2]
- abstinence signs upon naloxone challenge in morphine-dependent animals ([1]; icv administration): attenuated
- Ki [4]: 840 ± 180 nM
- CNS bioavailability [6]: did not show any CNS bioavailability
- abstinence-like signs induced by 1 in opiate-naive rats ([5]; icv administration): attenuated

Compound: Phe-Leu-Phe-Gln-Pro-Gln-Arg-Phe-NH2 (FLFQPQRF-NH2) [Compound 1, endogenous neuropeptide FF]
- opiate abstinence syndrome in morphine-dependent rats [7]: precipitates
- quasi-morphine-abstinence syndrome (QMAS) in opiate-naive rats ([5]; 15 μg i.c.v.): induces

Compound: Pro-Phe-Arg(Tic)-NH2 [Compound 3a]
- potency (or efficacy) in the pharmacological tests employed ([1]; compared with 3): less than that of 3
- naloxone-precipitated withdrawal symptoms in morphine-dependent rats ([1]; systemic administration): attenuated
